We go through one compound from patent US20230220006A1, “REGENTIDE-034 AND COMPOSITION FOR IMPROVING CONDITION OF SKIN, CONTAINING SAME” (NI[…]., LTD., priority 2020, published 2023).

Where a SMILES comes first, the peptide text is derived from it.

The subject of one series is CCD-986Sk. Put plainly: Cytotoxicity evaluation (CCK8) in fibroblasts. The series is classed as cell-based, human. To be noted: 5 µM or 10 µM, 48 hours, FBS-free medium. How it is done:
(§1) The cytotoxicity of Regentide-034 prepared in Example 1 above was evaluated. Specifically, cytotoxicities were measured in HaCaT cells, which are human epidermal keratinocytes, and CCD-986Sk, which is human fibroblasts. Keratinocytes were dispensed at 3 × 10^3 cells/well and fibroblasts were dispensed at 5 × 10^3 cells/well in a 96-well plate, and then cultured in cell culture conditions for 24 hours in a medium containing 10% FBS. After culturing, 5 µM or 10 µM of Regentide-034 was added to an FBS-free medium, and this was cultured for 48 hours. Thereafter, 10 µl per well of CCK8 reaction solution (Dojindo Molecular Technologies, Kumamoto, Japan) was treated and reacted for 4 hours, and then absorbance was measured at 450 nm. The average absorbance value for each sample group was obtained, and the cell viability was evaluated by comparing it with the absorbance value of cells that had not been treated with Regentide-034 as a control group.

Another series has as its system HaCaT cells. Kind of series: Cytotoxicity evaluation (CCK8) in epidermal keratinocytes. The class given is cell-based, human. To be noted: 5 µM or 10 µM, 48 hours, FBS-free medium. How it is done:
as §1

In the case of `C[C@H](N)C(=O)N[C@@H](Cc1ccc(O)cc1)C(=O)NCC(=O)N[C@@H](CS)C(=O)N[C@@H](Cc1ccc(O)cc1)C(=O)N[C@@H](CS)C(=O)NCC(=O)N[C@@H](Cc1c[nH]c2ccccc12)C(=O)NCC(=O)NCC(N)=O` [Regentide-034, AYGCYCGWGG-NH2] (H-AYGCYCGWGG-NH2), the “cytotoxicity (cell viability) to fibroblasts” value in the series on CCD-986Sk was “not toxic”. Moreover, the “cytotoxicity (cell viability) to epidermal keratinocytes” value in the series with HaCaT cells was “not toxic”.
